In patent publication US6271238A, “Acetamide derivatives and protease inhibitors” (Nippon Kayaku Kabushiki Kaisha, priority 1996, dated 2001):
Structures can show the parent of a compound that is named as a salt.

What was measured:
rat mast cells = experiment: Inhibitory action on degranulation of mast cells (histamine release from rat mast cells); type: cell-based; settings: Mast cell; rat peritoneal mast cells, anti-IgE antibody, 37° C.
Procedure: Inhibitory action on degranulation of mast cells
(A) Preparation of mast cells
30 ml of mast cell buffer solution (150 mM sodium chloride, 3.7 mM potassium chloride, 3.0 mM disodium hydrogen phosphate, 3.5 mM sodium dihydrogen phosphate, 5.6 mM dextrose, pH 7.0) was injected into the abdomen of a rat(SD, male, 8 to 10 week-old), and intra peritoneal cavity cells were recovered and centrifuged at 800 rpm for 5 minutes, and then the abdomen infiltration cells were recovered as precipitates. The precipitated cells were further washed twice with the mast cell buffer solution, suspended again at a predetermined density, and used in the objective experiment.
(B) Inhibitory action on degranulation of mast cells (inhibitory action on histamine release from rat mast cells)
The mast cells obtained in the procedure in (A) above were suspended at 1×10^5 cells in the mast cell buffer solution and kept at 37° C. 2 μl of each drug and 200 μl of the cell suspension were added into a 1.5 ml test tube previously kept at 37° C. and incubated at 37° C. for 10 minutes. After incubation, 2 μl anti-IgE antibody (BETHYL Lab. Inc.) was added to it and further incubated at 37° C. for 15 minutes. After the end of the reaction, the reaction mixture was immediately cooled on ice and centrifuged at 4° C. at 4000 rpm for 5 minutes, and then the supernatant was stored. Histamine in the supernatant was modified with ortho-phthalaldehyde and measured by high performance liquid chromatography to determine 50% inhibitory concentration (IC50: μM).

Human cathepsin G = molecular target: T1, Human cathepsin G (Homo sapiens, UniProt P08311); experiment: Inhibitory activity on proteases other than chymase: human cathepsin G; type: biochemical; settings: succinyl alanyl alanyl propyl phenylmethylcoumarylamide substrate; read-out: 50% Inhibitory concentration toward Human cathepsin G
T1 sequence (P08311 21-255): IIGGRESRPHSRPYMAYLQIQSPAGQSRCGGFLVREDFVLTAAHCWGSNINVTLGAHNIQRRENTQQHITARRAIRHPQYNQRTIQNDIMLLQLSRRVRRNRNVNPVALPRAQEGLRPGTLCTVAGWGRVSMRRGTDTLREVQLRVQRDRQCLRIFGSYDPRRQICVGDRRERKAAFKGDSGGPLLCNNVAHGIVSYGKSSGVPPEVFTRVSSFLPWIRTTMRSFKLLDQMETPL
Procedure: (§1) (E) Measurement of inhibitory activity on proteases other than chymase
(§2) The inhibitory activity of the present compounds on human elastase, human cathepsin G, human urokinase, human thrombin, human plasmin, and human factor Xa was determined using their corresponding synthetic substrates in the same manner as for chymase. All the above proteases were those commercially available from Boehringer Mannheim or purified by a combination of known methods. The synthetic substrates were those produced by Peptide Renkyusho. The synthetic substrates for the respective proteases are as follows.
Human cathepsin G Succinyl alanyl alanyl propyl phenylmethyl-
(§3) The test was conducted several times. Chymase was prepared for each test in the manner described above. The compounds examined were compounds prepared in the above-described examples.

Human elastase = molecular target: T2, Human elastase (Homo sapiens, UniProt P08246); experiment: Inhibitory activity on proteases other than chymase: human elastase; type: biochemical; settings: succinyl alanyl propyl alanyl methylcoumarylamide substrate; read-out: 50% Inhibitory concentration toward Human elastase
T2 sequence (P08246 30-247 limits assumed): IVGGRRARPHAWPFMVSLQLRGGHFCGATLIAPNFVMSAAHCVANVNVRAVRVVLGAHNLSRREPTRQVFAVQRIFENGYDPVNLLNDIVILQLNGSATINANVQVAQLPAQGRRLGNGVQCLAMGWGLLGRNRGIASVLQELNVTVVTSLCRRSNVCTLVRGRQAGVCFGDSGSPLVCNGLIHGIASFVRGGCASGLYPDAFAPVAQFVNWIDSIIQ
Procedure: as §1, §2
Human elastase Succinyl alanyl propyl alanyl methylcoumarylamide
as §3

dog chymase = molecular target: T3, dog chymase (Canis lupus familiaris, UniProt P21842); experiment: Inhibitory activity on dog chymase (angiotensin I as substrate); type: biochemical; settings: pH 8.0, 37° C., 60 min, read-out: Dog Chymase (IC50: nM), 50% inhibitory concentration
T3 construct: 60 g dog heart was finely divided by scissors and a scalpel; from tissue; host or cells: dog heart
T3 sequence (P21842 22-249): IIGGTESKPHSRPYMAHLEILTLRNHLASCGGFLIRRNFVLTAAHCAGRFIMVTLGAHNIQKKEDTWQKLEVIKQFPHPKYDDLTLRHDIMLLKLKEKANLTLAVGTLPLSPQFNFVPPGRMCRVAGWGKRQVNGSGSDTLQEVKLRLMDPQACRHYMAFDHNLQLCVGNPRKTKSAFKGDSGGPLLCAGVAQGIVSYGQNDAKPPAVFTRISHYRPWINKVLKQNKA
From the text: It is known that chymase is present in tissues of various animals, and its isolation and purification methods are described in Anal. Biochem., 137, 449 (1984) and FEBS Letters, 323, 119 (1993). In the present invention, chymase was purified by the methods described in these literatures, and the present compounds were examined for inhibitory activity on chymase, inhibitory action on activation of mast cells and eosinophils, and pharmacological action in animals. Hereinafter, specific methods are described. (c) Preparation of dog chymase 60 g dog heart was finely divided by scissors and a scalpel, suspended in 0.1 M phosphate buffer (pH 8.0), and disrupted by a Polytron homogenizer for 5 minutes to prepare a crude chymase enzyme solution. It was centrifuged at 22000×g for 15 minutes, and the precipitates were used as a chymase enzyme fraction. […] An active fraction decomposing the synthetic chymase substrate was recovered and concentrated and this product was used as a purified dog chymase in the following activity measurement. (D) Measurement of inhibitory activity on chymase (b) Measurement using angiotensin I as substrate The inhibitory activity on the human chymase and dog chymase was measured using angiotensin I (Peptide Kenkyusho) as substrate besides the above synthetic substrate. […] After the end of the reaction, produced angiotensin II was immediately measured by high performance liquid chromatography to determine the activity of the chymase to calculate 50% inhibitory concentration (IC50: nM). The test was conducted several times. Chymase was prepared for each test in the manner described above. The compounds examined were compounds prepared in the above-described examples. […] 50% Inhibitory concentration (IC50: nM) of each compound toward rat chymase, dog […] human […] Substrate: Succinyl leucyl leucyl valyl tyrosyl methylcoumarylamide (for rat […] angiotensin I (for human and dog chymase)

Row | Compound | IC50 (rat mast cells) [µM] | IC50 (Human cathepsin G) [µM] | IC50 (Human elastase) [µM] | IC50 (dog chymase) [nM]
1 | Nc1cnc(-c2ccccc2)n(CC(=O)NC(Cc2ccccc2)C(=O)C(=O)CCCc2ccccc2)c1=O (stereo not shown) [Compound 40] | 1.8 | > 10 | 1.9 | 13
2 | CCCCC(=O)C(=O)C(Cc1ccccc1)NC(=O)Cn1c(-c2ccccc2)ncc(N)c1=O (stereo not shown) [Compound 44] | 14 | – | – | 16
3 | CC(=O)C(=O)C(Cc1cccc(F)c1)NC(=O)Cn1c(-c2ccccc2)ncc(N)c1=O (stereo not shown) [Compound 52, 2-(5-Amino-6-oxo-2-phenyl-1,6-dihydropyrimidine-1-yl)-N-{1-(3-fluorophenyl)methyl-2,3-dioxo}butylacetamide] | 50 | 0.35 | > 10 | 27
4 | CCOC(=O)CCCC(=O)C(=O)C(Cc1cccc(F)c1)NC(=O)Cn1c(-c2ccccc2)ncc(N)c1=O (stereo not shown) [Compound 54] | 35 | – | – | 3.6
5 | CC(C)(C)OC(=O)Nc1cnc(-c2ccccc2)n(CC(=O)NC(Cc2ccccc2)C(=O)C(=O)CCCn2ccccc2=O)c1=O (stereo not shown) [Compound 72, 2-(5-t-Butyloxycarbonylamino-6-oxo-2-phenyl-1,6-dihydropyrimidine-1-yl)-N-{2,3-dioxo-6-(2-oxo-1,2-dihydropyridine-1-yl)-1-phenylmethyl}hexylacetamide] | – | 0.54 | 5.5 | 1.6
6 | Nc1cnc(-c2ccccc2)n(CC(=O)NC(Cc2ccccc2)C(=O)C(=O)CCCn2ccccc2=O)c1=O (stereo not shown) [Compound 73, 2-(5-Amino-6-oxo-2-phenyl-1,6-dihydropyrimidine-1-yl)-N-{2,3-dioxo-1-phenylmethyl-6-(2-oxo-1,2-dihydropyridine-1-yl)}hexylacetamide hydrochloride] | – | – | – | 2.9
7 | CC(C)(C)OC(=O)Nc1cnc(-c2ccccc2)n(CC(=O)NC(Cc2ccccc2)C(=O)C(=O)CCCOc2ccccn2)c1=O (stereo not shown) [Compound 74, 2-(5-t-Butyloxycarbonylamino-6-oxo-2-phenyl-1,6-dihydropyrimidine-1-yl)-N-{2,3-dioxo-6-(2-pyridyloxy)-1-phenylmethyl}hexylacetamide] | – | 0.09 | 6 | 0.92
8 | O=CNc1cnc(-c2ccccc2)n(CC(=O)NC(Cc2ccccc2)C(=O)C(=O)CCCOc2ccccn2)c1=O (stereo not shown) [Compound 79, 2-(5-Formylamino-6-oxo-2-phenyl-1,6-dihydropyrimidine-1-yl)-N-{2,3-dioxo-1-phenylmethyl-6-(2-pyridyloxy)}hexylacetamide] | – | 0.42 | > 10 | 0.32
9 | CC(=O)Nc1cnc(-c2ccccc2)n(CC(=O)NC(Cc2ccccc2)C(=O)C(=O)CCCOc2ccccn2)c1=O (stereo not shown) [Compound 80, 2-(5-Acetylamino-6-oxo-2-phenyl-1,6-dihydropyrimidine1-yl)-N-{2,3-dioxo-1-phenylmethyl-6-(-2-pyridyloxy)}hexyl-acetamide] | – | 0.018 | 2.1 | 0.35
10 | O=C(Cn1c(-c2ccccc2)ncc(NS(=O)(=O)NCc2ccccc2)c1=O)NC(Cc1ccccc1)C(=O)C(=O)CCCOc1ccccn1 (stereo not shown) [Compound 82, 2-(5-Benzylaminosulfonylamino-6-oxo-2-phenyl-1,6-dihydropyrimidine-1-yl)-N-{2,3-dioxo-1-phenylmethyl-6-(2-pyridyloxy)}hexylacetamide] | – | 0.019 | 4 | 0.14
